{"source": "patent US20170368148A1", "about": "“USES OF A PTHrP ANALOGUE IN REDUCING FRACTURE RISK” (RADIUS HEALTH, INC., priority 2015, published 2017)", "key": {"[1]": {"test_system": "postmenopausal women with osteoporosis", "assay": "ACTIVE trial: BMD by DXA", "format": "in vivo, human", "conditions": "for Mean percent change in BMD from baseline (ANCOVA), Femoral Neck / Mean percent change in BMD from baseline (ANCOVA), Lumbar Spine / Mean percent change in BMD from baseline (ANCOVA), Total Hip / Mean percent change in BMD from baseline (MMRM), Femoral Neck / Mean percent change in BMD from baseline (MMRM), Lumbar Spine / Mean percent change in BMD from baseline (MMRM), Total Hip: abaloparatide 80 μg or teriparatide 20 μg daily", "method": "(§1) BMD and bone turnover biomarkers (CTX and P1NP) were also evaluated in all patient groups to compare the effects of abaloparatide versus teriparatide.\nAs set forth in the ACTIVE protocol, the primary efficacy endpoint was the number of patients treated with abaloparatide with incident vertebral fractures at the end of treatment as compared to those who received placebo. The pre-specified secondary efficacy parameters included, among other endpoints, reduction in the incidence/risk of non-vertebral fractures; changes in BMD of the spine, hip, and femoral neck from baseline to end of treatment as assessed by DXA and as compared to teriparatide; and the number of hypercalcemic events in abaloparatide treated patients when compared to teriparatide at end of treatment.\nComparative analyses of abaloparatide versus teriparatide were completed on the following BMD secondary endpoints using a Mixed-Effect Model for Repeated Measures (MMRM) method, shown in Table 4 below:\nComparative analyses of the PTHrP analogues abaloparatide and teriparatide were completed on the following BMD secondary endpoints using an ANCOVA approach, shown in Table 5 below: […]"}, "[2]": {"test_system": "postmenopausal women with osteoporosis", "assay": "Phase 2 24-week dose-finding trial (48-week extension): BMD by DXA", "format": "in vivo, human", "text": "Healthy postmenopausal women between the ages of 55 to 85 (based on a 5-year history of amenorrhea and an elevated serum level of FSH) were enrolled in the study if they met one of the following the following definitions of osteoporosis:\nDual X-ray absorptiometry: DXA scans were obtained at each local site and then sent to a central imaging reader (BioClinica Inc. Newton, PA) where they underwent a quality control review and then analyzed according to each manufacturers guidelines. Scans performed during the treatment period on the same instrument used for the baseline scan were acquired. Each study site performed Instrument Quality Control over time (instrument standardization and phantom calibration) that was reviewed by the central reader.\nBMD was re-measured at the 48-week visit."}, "[3]": {"test_system": "postmenopausal women with osteoporosis", "assay": "Phase 2 24-week trial: serum biochemical markers of bone turnover", "format": "in vivo, human", "conditions": "24 weeks; 20 μg daily SC", "method": "Biochemical Markers of bone turnover: Fasting morning blood samples (collected 24 hours after last injection if taking teriparatide) were obtained at each visit. Serum osteocalcin (OC) was measured via electrochemiluminescence assay (Roche Diagnostics, Basel, Switzerland), with […] coefficients of variation (CVs) of 1.8% and 4.8% respectively. Serum amino-terminal propeptide of type 1 procollagen (P1NP) was measured via radioimmunoassay (Orion Diagnostica, Espoo, Finland) with inter- and intra-assay CVs of 4.5% and 5.5% respectively. Serum β-c-terminal telopeptide of type one collagen (CTX) was measured via electrochemiluminescence assay (Roche Diagnostics, Basel, Switzerland) with inter- and intraassay CVs of 3.8% and 6.9% respectively."}, "[4]": {"test_system": "postmenopausal osteoporotic women", "assay": "Trabecular bone score (TBS) from spinal DXA, phase 2 trial", "format": "in vivo, human", "conditions": "20 μg daily SC", "text": "To assess the effects of the PTHrP analogue abaloparatide on trabecular microarchitecture as indirectly assessed by TBS, the TBS (TBS Calculator v2.2, Medimaps group, Plan-les-Ouates, Geneva, Switzerland) in a blinded fashion at 0, 12, and 24-weeks in 222 postmenopausal osteoporotic women (age 55-85) who were randomized to receive 24-weeks of daily subcutaneous injections of placebo, abaloparatide 20-μg, abaloparatide 40-μg. abaloparatide 80-μg, or teriparatide (TPTD) 20-μg was retrospectively calculated. Between groups differences in the mean percent TBS changes were assessed by unpaired t-test."}, "[5]": {"test_system": "postmenopausal women with osteoporosis", "assay": "ACTIVE trial: bone turnover markers (CTX, P1NP)", "format": "in vivo, human", "conditions": "at 18 months", "method": "The ACTIVE phase 3 fracture prevention trial was conducted for abaloparatide in postmenopausal women with osteoporosis who were otherwise healthy. The enrolled subjects were treated with 80 micrograms (μg) of abaloparatide, a matching placebo, or the approved daily dose of 20 μg of teriparatide for 18 months. The ACTIVE trial evaluated fracture rates, fracture risks, BMD, and bone turnover biomarkers (e.g., CTX and P1NP) in all patient groups.\nas §1"}, "[6]": {"test_system": "postmenopausal women with osteoporosis", "assay": "ACTIVE trial: adverse events", "conditions": "18 months; abaloparatide 80 μg (n = 822), teriparatide 20 μg (n = 818)", "procedure": "Safety evaluations performed in the ACTIVE trial included physical examinations, vital signs, 12-lead electrocardiograms, or ECGs, clinical laboratory tests and monitoring, and recording of adverse events. Specific safety assessments included pre-dose and post-dose (four hours) determination of serum calcium, determination of creatinine clearance, post-dose ECG assessments at selected visits, and assessments of postural hypotension (60 minutes post-dose) at selected clinic visits.\nThe ACTIVE trial also evaluated several potential safety measures, including blood calcium levels, orthostatic hypotension, nausea, dizziness, and injection-site reactions."}, "[7]": {"conditions": "24 weeks, abaloparatide 80 μg, teriparatide 20 μg, valid-completers"}, "[8]": {"conditions": "48 weeks (extension), 20 μg daily SC"}}, "note": "Marks after values point to notes of the source that are not given here."}
{"smiles": "CC[C@H](C)[C@H](NC(=O)[C@H](CCC(=O)O)NC(=O)[C@H](CO)NC(=O)[C@@H](NC(=O)[C@@H](N)CO)C(C)C)C(=O)N[C@@H](CCC(N)=O)C(=O)N[C@@H](CC(C)C)C(=O)N[C@@H](CCSC)C(=O)N[C@@H](Cc1cnc[nH]1)C(=O)N[C@@H](CC(N)=O)C(=O)N[C@@H](CC(C)C)C(=O)NCC(=O)N[C@@H](CCCCN)C(=O)N[C@@H](Cc1cnc[nH]1)C(=O)N[C@@H](CC(C)C)C(=O)N[C@@H](CC(N)=O)C(=O)N[C@@H](CO)C(=O)N[C@@H](CCSC)C(=O)N[C@@H](CCC(=O)O)C(=O)N[C@@H](CCCN=C(N)N)C(=O)N[C@H](C(=O)N[C@@H](CCC(=O)O)C(=O)N[C@@H](Cc1c[nH]c2ccccc12)C(=O)N[C@@H](CC(C)C)C(=O)N[C@@H](CCCN=C(N)N)C(=O)N[C@@H](CCCCN)C(=O)N[C@@H](CCCCN)C(=O)N[C@@H](CC(C)C)C(=O)N[C@@H](CCC(N)=O)C(=O)N[C@@H](CC(=O)O)C(=O)N[C@H](C(=O)N[C@@H](Cc1cnc[nH]1)C(=O)N[C@@H](CC(N)=O)C(=O)N[C@@H](Cc1ccccc1)C(=O)O)C(C)C)C(C)C", "note": "[teriparatide, hPTH(1-34)]", "values": [{"measurement": "Mean percent change in BMD from baseline (ANCOVA), Femoral Neck", "setting": "[1]; 6 mo", "value": 0.80, "unit": "%*"}, {"measurement": "Mean percent change in BMD from baseline (ANCOVA), Lumbar Spine", "setting": "[1]; 6 mo", "value": 4.84, "unit": "%*"}, {"measurement": "Mean percent change in BMD from baseline (ANCOVA), Total Hip", "setting": "[1]; 6 mo", "value": 1.33, "unit": "%*"}, {"measurement": "Mean percent change in BMD from baseline (MMRM), Femoral Neck", "setting": "[1]; 6 mo", "value": 0.87, "unit": "%*"}, {"measurement": "Mean percent change in BMD from baseline (MMRM), Lumbar Spine", "setting": "[1]; 6 mo", "value": 5.25, "unit": "%*"}, {"measurement": "Mean percent change in BMD from baseline (MMRM), Total Hip", "setting": "[1]; 6 mo", "value": 1.44, "unit": "%*"}, {"measurement": "Mean percent change in BMD from baseline (ANCOVA), Femoral Neck", "setting": "[1]; 12 mo", "value": 1.41, "unit": "%*"}, {"measurement": "Mean percent change in BMD from baseline (ANCOVA), Lumbar Spine", "setting": "[1]; 12 mo", "value": 7.40, "unit": "%*"}, {"measurement": "Mean percent change in BMD from baseline (ANCOVA), Total Hip", "setting": "[1]; 12 mo", "value": 2.03, "unit": "%*"}, {"measurement": "Mean percent change in BMD from baseline (MMRM), Femoral Neck", "setting": "[1]; 12 mo", "value": 1.54, "unit": "%*"}, {"measurement": "Mean percent change in BMD from baseline (MMRM), Lumbar Spine", "setting": "[1]; 12 mo", "value": 8.28, "unit": "%*"}, {"measurement": "Mean percent change in BMD from baseline (MMRM), Total Hip", "setting": "[1]; 12 mo", "value": 2.29, "unit": "%*"}, {"measurement": "Subjects with increased BMD of >3% at all three sites (lumbar spine, total hip, femoral neck)", "setting": "[1]; 12 months", "value": 19.8, "unit": "%"}, {"measurement": "Mean percent change in BMD from baseline (ANCOVA), Femoral Neck", "setting": "[1]; 18 mo", "value": 2.26, "unit": "%*"}, {"measurement": "Mean percent change in BMD from baseline (ANCOVA), Lumbar Spine", "setting": "[1]; 18 mo", "value": 9.12, "unit": "%*"}, {"measurement": "Mean percent change in BMD from baseline (ANCOVA), Total Hip", "setting": "[1]; 18 mo", "value": 2.81, "unit": "%*"}, {"measurement": "Mean percent change in BMD from baseline (MMRM), Femoral Neck", "setting": "[1]; 18 mo", "value": 2.66, "unit": "%*"}, {"measurement": "Mean percent change in BMD from baseline (MMRM), Lumbar Spine", "setting": "[1]; 18 mo", "value": 10.49, "unit": "%*"}, {"measurement": "Mean percent change in BMD from baseline (MMRM), Total Hip", "setting": "[1]; 18 mo", "value": 3.26, "unit": "%*"}, {"measurement": "Subjects with increased BMD of >3% at all three sites (lumbar spine, total hip, femoral neck)", "setting": "[1]; 18 months", "value": 32.0, "unit": "%"}, {"measurement": "Subjects with increased BMD of >3% at all three sites (lumbar spine, total hip, femoral neck)", "setting": "[1]; month 6", "value": 6.5, "unit": "%"}, {"measurement": "Femoral neck BMD increase", "setting": "[2]; 24 weeks, 20 μg daily SC", "value": "1.1±4.6", "unit": "%"}, {"measurement": "Lumbar spine BMD increase (±SD)", "setting": "[2]; 24 weeks, 20 μg daily SC", "value": "5.5±4.1", "unit": "%"}, {"measurement": "Total hip BMD increase", "setting": "[2]; 24 weeks, 20 μg daily SC", "value": "0.5±3.9", "unit": "%"}, {"measurement": "Percentage of subjects with a >3% BMD gain at the lumbar spine", "setting": "[2]; [7]", "value": 70, "unit": "%"}, {"measurement": "Percentage of subjects with a >3% total hip BMD gain", "setting": "[2]; [7]", "value": 16, "unit": "%"}, {"measurement": "Femoral neck BMD increase", "setting": "[2]; [8]", "value": 2.2, "unit": "%"}, {"measurement": "Lumbar spine BMD increase", "setting": "[2]; [8]", "value": 8.6, "unit": "%"}, {"measurement": "Total hip BMD increase", "setting": "[2]; [8]", "value": 1.3, "unit": "%"}, {"measurement": "CTX increase, median (interquartile range)", "setting": "[3]", "value": "76 (13, 130) %"}, {"measurement": "P1NP increase, median (interquartile range)", "setting": "[3]", "value": "98 (21, 184) %"}, {"measurement": "TBS mean percent change", "setting": "[4]; 12 weeks", "value": "+1.5%"}, {"measurement": "TBS mean percent change", "setting": "[4]; 24 weeks", "value": "+2.6%"}, {"measurement": "CTX level compared to placebo", "setting": "[5]", "value": "elevated levels compared to placebo"}, {"measurement": "AE: Arthralgia", "setting": "[6]", "value": 8.6, "unit": "%"}, {"measurement": "AE: Back pain", "setting": "[6]", "value": 7.2, "unit": "%^‡"}, {"measurement": "AE: Constipation", "setting": "[6]", "value": 4.2, "unit": "%"}, {"measurement": "AE: Dizziness", "setting": "[6]", "value": 7.3, "unit": "%"}, {"measurement": "AE: Headache", "setting": "[6]", "value": 6.2, "unit": "%"}, {"measurement": "AE: Hypercalcemia (serum albumin-corrected calcium value ≧10.7 mg/dL)", "setting": "[6]", "value": 6.37, "unit": "%^†"}, {"measurement": "AE: Hypercalciuria", "setting": "[6]", "value": 12.5, "unit": "%^‡"}, {"measurement": "AE: Hypertension", "setting": "[6]", "value": 5.0, "unit": "%"}, {"measurement": "AE: Influenza", "setting": "[6]", "value": 4.2, "unit": "%"}, {"measurement": "AE: Nasopharyngitis", "setting": "[6]", "value": 6.5, "unit": "%"}, {"measurement": "AE: Nausea", "setting": "[6]", "value": 5.1, "unit": "%^‡"}, {"measurement": "AE: Pain in extremity", "setting": "[6]", "value": 5.1, "unit": "%"}, {"measurement": "AE: Palpitations", "setting": "[6]", "value": 1.6, "unit": "%^‡"}, {"measurement": "AE: Upper respiratory tract infection", "setting": "[6]", "value": 8.9, "unit": "%"}, {"measurement": "AE: Urinary tract infection", "setting": "[6]", "value": 5.0, "unit": "%"}]}
